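Values below derive from 48-hour exposures of cells grown in 96-well plates, with endpoints linearly interpolated between the two concentrations bracketing the appropriate inhibition level. GI50 is the concentration that inhibits growth by half.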 The source made the active and inactive calls. No stated cut-off is given here; in the data, active = GI50 up to about 1.1 µM and inactive = higher.
Key:
Experiment in all cases: NCI anticancer screen, dose series, 48 h
CCRF-CEM = system: CCRF-CEM
CAKI-1 = system: CAKI-1
U-251 = system: U-251
SW-620 = system: SW-620
COLO 205 = system: COLO 205
KM12 = system: KM12
HOP-62 = system: HOP-62
RPMI-8226 = system: RPMI-8226
SK-MEL-5 = system: SK-MEL-5
A549 = system: A549
RXF 393 = system: RXF 393
HL-60 = system: HL-60
OVCAR-5 = system: OVCAR-5
NCI-H522 = system: NCI-H522
SF-539 = system: SF-539
UO-31 = system: UO-31
HOP-92 = system: HOP-92
A498 = system: A498
M19-MEL = system: M19-MEL
NCI/ADR-RES = system: NCI/ADR-RES

Question: What does the source list for `Nc1nc2cc(COc3ccc(C(=O)O)cc3)ccc2nc1-c1ccccc1`?
Answer: GI50 (CCRF-CEM): > 10 µM (inactive); GI50 (CAKI-1): > 10 µM (inactive); GI50 (U-251): > 10 µM (inactive); GI50 (SW-620): > 10 µM (inactive); GI50 (COLO 205): > 10 µM (inactive); GI50 (KM12): > 10 µM (inactive); GI50 (HOP-62): > 10 µM (inactive); GI50 (RPMI-8226): > 10 µM (inactive); GI50 (SK-MEL-5): > 10 µM (inactive); GI50 (A549): > 10 µM (inactive); GI50 (RXF 393): > 10 µM (inactive); GI50 (HL-60): > 10 µM (inactive); GI50 (OVCAR-5): > 10 µM (inactive); GI50 (NCI-H522): > 10 µM (inactive); GI50 (SF-539): > 10 µM (inactive); GI50 (UO-31): > 10 µM (inactive); GI50 (HOP-92): > 10 µM (inactive)

Question: What does the source list for `c1ccc(C(c2ccccc2)[P+](c2ccccc2)(c2ccccc2)c2ccccc2)cc1`?
Answer: GI50 (CCRF-CEM): 0.317 µM (active); GI50 (CAKI-1): 2.69 µM (inactive); GI50 (U-251): 0.431 µM (active); GI50 (SW-620): 0.466 µM (active); GI50 (COLO 205): 0.289 µM (active); GI50 (KM12): 0.241 µM (active); GI50 (HOP-62): 0.867 µM (active); GI50 (A498): 2.32 µM (inactive); GI50 (RPMI-8226): 0.226 µM (active); GI50 (SK-MEL-5): 0.37 µM (active); GI50 (A549): 0.422 µM (active); GI50 (RXF 393): 2.24 µM (inactive); GI50 (HL-60): 0.182 µM (active); GI50 (OVCAR-5): 0.933 µM (active); GI50 (NCI-H522): 0.223 µM (active); GI50 (SF-539): 1.27 µM (inactive); GI50 (UO-31): 0.951 µM (active); GI50 (M19-MEL): 0.397 µM (active); GI50 (HOP-92): 0.543 µM (active); GI50 (NCI/ADR-RES): 35.2 µM (inactive)

Question: How did the GI50 (CAKI-1) turn out when `CCOC(=O)C1=C(C)N(NC(N)=O)C2(O)CCCC(=O)C12C` (centres undefined) was run?
Answer: The GI50 was > 100 µM (inactive).

Question: And the GI50 (U-251)?
Answer: The GI50 was > 100 µM (inactive).

Question: And the GI50 (SW-620)?
Answer: The GI50 was > 100 µM (inactive).

Question: And the GI50 (COLO 205)?
Answer: The GI50 was > 100 µM (inactive).

Question: And the GI50 (KM12)?
Answer: The GI50 was > 100 µM (inactive).

Question: What about the GI50 (A498) of the same compound?
Answer: Its GI50 is > 100 µM (inactive).

Question: And the GI50 (RPMI-8226)?
Answer: The GI50 was > 100 µM (inactive).

Question: What about the GI50 (SK-MEL-5) of the same compound?
Answer: The GI50 was > 100 µM (inactive).

Question: And the GI50 (A549)?
Answer: The GI50 was > 100 µM (inactive).

Question: What about the GI50 (RXF 393) of the same compound?
Answer: The GI50 was > 100 µM (inactive).

Question: What about the GI50 (OVCAR-5) of the same compound?
Answer: The GI50 was > 100 µM (inactive).

Question: And the GI50 (NCI-H522)?
Answer: Its GI50 is > 100 µM (inactive).

Question: What about the GI50 (SF-539) of the same compound?
Answer: The GI50 was > 100 µM (inactive).

Question: What about the GI50 (HOP-92) of the same compound?
Answer: Its GI50 is > 100 µM (inactive).

Question: What does the source list for `CCOC(=O)C1=C(C)N(c2ccc(OC)cc2)C2(O)C=CC(O)=C3C(=O)c4ccccc4C(=O)C312` (centres undefined)?
Answer: GI50 (CCRF-CEM): 3.4 µM (inactive); GI50 (CAKI-1): 8.38 µM (inactive); GI50 (U-251): 8.49 µM (inactive); GI50 (SW-620): 13.5 µM (inactive); GI50 (COLO 205): 11.5 µM (inactive); GI50 (KM12): 12.9 µM (inactive); GI50 (HOP-62): 13.8 µM (inactive); GI50 (A498): 10.5 µM (inactive); GI50 (RPMI-8226): 2.44 µM (inactive); GI50 (SK-MEL-5): 11.4 µM (inactive); GI50 (A549): 11.1 µM (inactive); GI50 (HL-60): 5.93 µM (inactive); GI50 (OVCAR-5): 15.8 µM (inactive); GI50 (NCI-H522): 2.57 µM (inactive); GI50 (SF-539): 6.92 µM (inactive); GI50 (UO-31): 13.9 µM (inactive); GI50 (HOP-92): 2.25 µM (inactive); GI50 (NCI/ADR-RES): 3.01 µM (inactive)

Question: Which GI50 (CCRF-CEM) does the source give for `CC1(c2sccc2Cl)CC(c2sccc2Cl)=C(C#N)C(=C(C#N)C#N)N1` (centres undefined) here?
Answer: The GI50 was 38.4 µM (inactive).

Question: What about the GI50 (CAKI-1) of the same compound?
Answer: The GI50 was 20.2 µM (inactive).

Question: And the GI50 (U-251)?
Answer: The GI50 was 18.5 µM (inactive).

Question: What about the GI50 (SW-620) of the same compound?
Answer: Its GI50 is 18.8 µM (inactive).

Question: And the GI50 (COLO 205)?
Answer: Its GI50 is 23.1 µM (inactive).

Question: And the GI50 (KM12)?
Answer: Its GI50 is 20.9 µM (inactive).

Question: And the GI50 (HOP-62)?
Answer: The GI50 was 19.3 µM (inactive).

Question: What about the GI50 (A498) of the same compound?
Answer: The GI50 was 18 µM (inactive).

Question: And the GI50 (RPMI-8226)?
Answer: The GI50 was 36.1 µM (inactive).

Question: What about the GI50 (SK-MEL-5) of the same compound?
Answer: Its GI50 is 18.5 µM (inactive).

Question: And the GI50 (A549)?
Answer: Its GI50 is 24.7 µM (inactive).

Question: What about the GI50 (RXF 393) of the same compound?
Answer: Its GI50 is 16.4 µM (inactive).

Question: What about the GI50 (HL-60) of the same compound?
Answer: Its GI50 is 34.2 µM (inactive).

Question: And the GI50 (OVCAR-5)?
Answer: Its GI50 is 22.3 µM (inactive).

Question: What about the GI50 (NCI-H522) of the same compound?
Answer: Its GI50 is 19.1 µM (inactive).

Question: And the GI50 (SF-539)?
Answer: The GI50 was 19.8 µM (inactive).

Question: And the GI50 (NCI/ADR-RES)?
Answer: The GI50 was 22.8 µM (inactive).

Question: With `COc1cccc2c1C(=O)c1c(O)c3c(c(O)c1C2=O)CC(O)(C(=O)CO)CC3OC1CC(N)C(I)C(C)O1` (centres undefined) as the compound, how does the GI50 (CCRF-CEM) read?
Answer: Its GI50 is 1.08 µM (active).

Question: What about the GI50 (CAKI-1) of the same compound?
Answer: Its GI50 is 2.87 µM (inactive).

Question: What about the GI50 (U-251) of the same compound?
Answer: Its GI50 is 2.7 µM (inactive).

Question: And the GI50 (SW-620)?
Answer: The GI50 was 3.08 µM (inactive).

Question: What about the GI50 (COLO 205) of the same compound?
Answer: Its GI50 is 13.3 µM (inactive).

Question: And the GI50 (KM12)?
Answer: The GI50 was > 30.3 µM (inactive).

Question: What about the GI50 (HOP-62) of the same compound?
Answer: The GI50 was 1.6 µM (inactive).

Question: What about the GI50 (A498) of the same compound?
Answer: Its GI50 is 3.53 µM (inactive).

Question: What about the GI50 (RPMI-8226) of the same compound?
Answer: The GI50 was 4.5 µM (inactive).

Question: And the GI50 (SK-MEL-5)?
Answer: Its GI50 is 2.64 µM (inactive).

Question: And the GI50 (A549)?
Answer: The GI50 was 0.736 µM (active).

Question: And the GI50 (RXF 393)?
Answer: The GI50 was 2.44 µM (inactive).

Question: And the GI50 (HL-60)?
Answer: The GI50 was 0.428 µM (active).

Question: What about the GI50 (OVCAR-5) of the same compound?
Answer: Its GI50 is 13.5 µM (inactive).

Question: And the GI50 (NCI-H522)?
Answer: Its GI50 is 2.9 µM (inactive).

Question: What about the GI50 (SF-539) of the same compound?
Answer: Its GI50 is 2.62 µM (inactive).

Question: What about the GI50 (UO-31) of the same compound?
Answer: The GI50 was 4.88 µM (inactive).

Question: And the GI50 (M19-MEL)?
Answer: Its GI50 is 2.7 µM (inactive).

Question: What about the GI50 (HOP-92) of the same compound?
Answer: The GI50 was 9.68 µM (inactive).

Question: What about the GI50 (NCI/ADR-RES) of the same compound?
Answer: The GI50 was 12.4 µM (inactive).

Question: With `CC(=O)NNc1nc(C)c(C(=O)NNC(=O)C(=O)Nc2ccc([N+](=O)[O-])cc2[N+](=O)[O-])s1` as the compound, how does the GI50 (CCRF-CEM) read?
Answer: The GI50 was 22.3 µM (inactive).

Question: And the GI50 (CAKI-1)?
Answer: The GI50 was 57.1 µM (inactive).

Question: And the GI50 (U-251)?
Answer: The GI50 was 68.7 µM (inactive).

Question: And the GI50 (SW-620)?
Answer: Its GI50 is > 100 µM (inactive).

Question: And the GI50 (COLO 205)?
Answer: Its GI50 is > 100 µM (inactive).

Question: And the GI50 (KM12)?
Answer: Its GI50 is > 100 µM (inactive).

Question: And the GI50 (HOP-62)?
Answer: Its GI50 is > 100 µM (inactive).

Question: What about the GI50 (A498) of the same compound?
Answer: The GI50 was > 100 µM (inactive).

Question: What about the GI50 (RPMI-8226) of the same compound?
Answer: Its GI50 is 99.8 µM (inactive).

Question: And the GI50 (SK-MEL-5)?
Answer: Its GI50 is > 100 µM (inactive).

Question: And the GI50 (A549)?
Answer: Its GI50 is 68.9 µM (inactive).

Question: And the GI50 (RXF 393)?
Answer: Its GI50 is 80.4 µM (inactive).

Question: What about the GI50 (HL-60) of the same compound?
Answer: Its GI50 is 64.9 µM (inactive).

Question: What about the GI50 (OVCAR-5) of the same compound?
Answer: Its GI50 is > 100 µM (inactive).

Question: What about the GI50 (NCI-H522) of the same compound?
Answer: The GI50 was 30.6 µM (inactive).

Question: What about the GI50 (SF-539) of the same compound?
Answer: The GI50 was > 100 µM (inactive).

Question: What about the GI50 (UO-31) of the same compound?
Answer: The GI50 was > 100 µM (inactive).

Question: And the GI50 (HOP-92)?
Answer: The GI50 was 79.3 µM (inactive).

Source: ChEMBL document CHEMBL1201862, “PubChem BioAssay data set” (2004)
